From ChEMBL document CHEMBL1255208, “A class of novel conjugates of substituted purine and Gly-AA-OBzl: synthesis and evaluation of orally analgesic activity” (2010)

How the values were obtained:
Format in all cases: functional
Mus musculus [1] = assay: Analgesic activity in mouse assessed as pain threshold variation at 25 umol/kg, po after 120 mins (RVb = 0.69 +/- 1.98 %)
Mus musculus [2] = assay: Analgesic activity in mouse assessed as pain threshold variation at 25 umol/kg, po after 30 mins (RVb = -1 +/- 2.8 %)
Mus musculus [3] = assay: Analgesic activity in mouse assessed as pain threshold variation at 25 umol/kg, po after 60 mins (RVb = -6.5 +/- 1.79 %)
Mus musculus [4] = assay: Analgesic activity in mouse assessed as pain threshold variation at 25 umol/kg, po after 90 mins (RVb = 0.2 +/- 3.75 %)
Mus musculus [5] = assay: Analgesic activity in mouse assessed as pain threshold variation at 25 umol/kg, po after 150 mins (RVb = 3.98 +/- 4.03 %)
Mus musculus [6] = assay: Analgesic activity in mouse assessed as pain threshold variation at 25 umol/kg, po after 180 mins (RVb = -5.10 %)
Mus musculus [7] = assay: Analgesic activity in mouse assessed as pain threshold variation at 30 umol/kg, po after 30 mins (RVb = 0.13 +/- 0.14 %)
Mus musculus [8] = assay: Analgesic activity in mouse assessed as pain threshold variation at 3 umol/kg, po after 30 mins (RVb = 0.13 +/- 0.14 %)
Mus musculus [9] = assay: Analgesic activity in mouse assessed as pain threshold variation at 0.3 umol/kg, po after 30 mins (RVb = 0.13 +/- 0.14 %)
Mus musculus [10] = assay: Analgesic activity in mouse assessed as pain threshold variation at 30 umol/kg, po after 60 mins (RVb = 0.15 +/- 0.16 %)
Mus musculus [11] = assay: Analgesic activity in mouse assessed as pain threshold variation at 3 umol/kg, po after 60 mins (RVb = 0.15 +/- 0.16 %)
Mus musculus [12] = assay: Analgesic activity in mouse assessed as pain threshold variation at 0.3 umol/kg, po after 60 mins (RVb = 0.15 +/- 0.16 %)
Mus musculus [13] = assay: Analgesic activity in mouse assessed as pain threshold variation at 30 umol/kg, po after 90 mins (RVb = 0.17 +/- 0.14 %)
Mus musculus [14] = assay: Analgesic activity in mouse assessed as pain threshold variation at 3 umol/kg, po after 90 mins (RVb = 0.17 +/- 0.14 %)
Mus musculus [15] = assay: Analgesic activity in mouse assessed as pain threshold variation at 0.3 umol/kg, po after 90 mins (RVb = 0.17 +/- 0.14 %)
Mus musculus [16] = assay: Analgesic activity in mouse assessed as pain threshold variation at 30 umol/kg, po after 120 mins (RVb = 0.18 +/- 0.15 %)
Mus musculus [17] = assay: Analgesic activity in mouse assessed as pain threshold variation at 3 umol/kg, po after 120 mins (RVb = 0.18 +/- 0.15 %)
Mus musculus [18] = assay: Analgesic activity in mouse assessed as pain threshold variation at 0.3 umol/kg, po after 120 mins (RVb = 0.18 +/- 0.15 %)
Mus musculus [19] = assay: Analgesic activity in mouse assessed as pain threshold variation at 30 umol/kg, po after 150 mins (RVb = 0.16 +/- 0.13 %)
Mus musculus [20] = assay: Analgesic activity in mouse assessed as pain threshold variation at 3 umol/kg, po after 150 mins (RVb = 0.16 +/- 0.13 %)
Mus musculus [21] = assay: Analgesic activity in mouse assessed as pain threshold variation at 0.3 umol/kg, po after 150 mins (RVb = 0.16 +/- 0.13 %)
Mus musculus [22] = assay: Analgesic activity in mouse assessed as pain threshold variation at 30 umol/kg, po after 180 mins (RVb = 0.15 +/- 0.12 %)
Mus musculus [23] = assay: Analgesic activity in mouse assessed as pain threshold variation at 3 umol/kg, po after 180 mins (RVb = 0.15 +/- 0.12 %)
Mus musculus [24] = assay: Analgesic activity in mouse assessed as pain threshold variation at 0.3 umol/kg, po after 180 mins (RVb = 0.15 +/- 0.12 %)

N=C(N)NCCC[C@H](NC(=O)CN(c1nc(Cl)nc2c1ncn2C1CCCCO1)C1CC1)C(=O)OCc1ccccc1 (stereo partly drawn)
Activity (Mus musculus [1]): 38.16% | Activity (Mus musculus [2]): 34.27% | Activity (Mus musculus [3]): 52.35% | Activity (Mus musculus [4]): 61.58% | Activity (Mus musculus [5]): 19.6% | Activity (Mus musculus [6]): 7.97% | Activity (Mus musculus [7]): 39.41% | Activity (Mus musculus [8]): 20.55% | Activity (Mus musculus [9]): 12.15% | Activity (Mus musculus [10]): 57.51% | Activity (Mus musculus [11]): 41.07% | Activity (Mus musculus [12]): 25.11% | Activity (Mus musculus [13]): 66.71% | Activity (Mus musculus [14]): 50.14% | Activity (Mus musculus [15]): 32.88% | Activity (Mus musculus [16]): 43.3% | Activity (Mus musculus [17]): 29.09% | Activity (Mus musculus [18]): 12.14% | Activity (Mus musculus [19]): 24.69% | Activity (Mus musculus [20]): 15% | Activity (Mus musculus [21]): 10.03% | Activity (Mus musculus [22]): 14.01% | Activity (Mus musculus [23]): 10.34% | Activity (Mus musculus [24]): 7.56%

O=C(CN(c1nc(Cl)nc2c1ncn2C1CCCCO1)C1CC1)NCC(=O)OCc1ccccc1 (stereo not drawn)
Activity (Mus musculus [1]): 17.23% | Activity (Mus musculus [2]): 55.72% | Activity (Mus musculus [3]): 40.44% | Activity (Mus musculus [4]): 25.94% | Activity (Mus musculus [5]): 7.26% | Activity (Mus musculus [6]): 0.06% | Activity (Mus musculus [7]): 60.84% | Activity (Mus musculus [8]): 45.27% | Activity (Mus musculus [9]): 18% | Activity (Mus musculus [10]): 45.52% | Activity (Mus musculus [11]): 29.07% | Activity (Mus musculus [12]): 16.24% | Activity (Mus musculus [13]): 31.04% | Activity (Mus musculus [14]): 20.25% | Activity (Mus musculus [15]): 11.2% | Activity (Mus musculus [16]): 22.31% | Activity (Mus musculus [17]): 14.53% | Activity (Mus musculus [18]): 10.02% | Activity (Mus musculus [19]): 12.33% | Activity (Mus musculus [20]): 10.04% | Activity (Mus musculus [21]): 9.45% | Activity (Mus musculus [22]): 10.16% | Activity (Mus musculus [23]): 9.2% | Activity (Mus musculus [24]): 9%
